# Values of other authors in patent US20160264934A1, “METHODS FOR MODULATING AND ASSAYING m6A IN STEM CELL POPULATIONS” (THE GENERAL HOSPITAL CORPORATION, priority 2015, published 2016).
# Target: ALKBH5 (Homo sapiens, UniProt Q6P6C2)
# Conditions: HPLC-based assays
# Sequence of ALKBH5 (Q6P6C2 whole entry, species assumed): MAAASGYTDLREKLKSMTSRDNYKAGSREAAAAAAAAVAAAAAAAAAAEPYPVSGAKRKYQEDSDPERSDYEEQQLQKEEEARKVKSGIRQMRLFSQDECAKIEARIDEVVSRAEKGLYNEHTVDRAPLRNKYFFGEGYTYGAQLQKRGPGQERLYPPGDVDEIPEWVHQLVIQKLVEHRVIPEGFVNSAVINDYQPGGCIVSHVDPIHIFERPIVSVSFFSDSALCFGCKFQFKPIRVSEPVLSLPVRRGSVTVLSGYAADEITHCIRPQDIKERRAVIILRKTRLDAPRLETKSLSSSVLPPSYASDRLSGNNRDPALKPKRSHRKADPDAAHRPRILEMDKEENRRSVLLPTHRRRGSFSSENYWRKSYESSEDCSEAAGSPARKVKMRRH
compound,measurement,value
Cc1ccc(Cl)c(Nc2ccccc2C(=O)O)c1Cl [meclofenamic acid],inhibition of ALKBH5,no inhibition
